Assays:
NOS2 = test: Pulmonary cGMP levels after endotoxin challenge; type: in vivo, mouse; details: wild-type mice 7 hours after endotoxin challenge; L-NIL 5 mg/kg intraperitoneally; data not shown
[1] = tested on: hypoxic pulmonary vasoconstriction (HPV) in mice; test: Redistribution of pulmonary blood flow (QLPA/QPA) after left mainstem bronchus occlusion (LMBO), murine HPV model; type: in vivo, mouse
Experimental: Group 3: endotoxin-treated+L-NIL. SV129/B6F1 wild-type mice (n=5) were injected intraperitoneally with 10 mg/kg E. coli 011B4 endotoxin dissolved in 0.2 mL saline. Three hours after the endotoxin challenge, mice were treated with L-NIL 5 mg/kg intraperitoneally. Studies were performed 22 hours after the endotoxin challenge. In additional SV129/B6F1 mice with (n=5) and without (n=4) a prior challenge of endotoxin (22 hours earlier), the acute response to an intravenous bolus of 5 mg/kg L-NIL administered during LMBO, was studied.
Group 4: prolonged exposure to 4 or 40 ppm NO. Saline-treated SV129 wild-type mice (n=5) and NOS2-deficient mice (n=5) breathed 40 ppm NO in air for 22 hours and were studied 1 hour after discontinuation of NO inhalation. SV129 wild-type mice (n=5) and NOS2-deficient mice (n=5) breathed 40 ppm NO in air for 22 hours after challenge with 10 mg/kg endotoxin intraperitoneally and were studied 1 hour after discontinuation of NO inhalation. Additional NOS2-deficient mice (n=4) breathed 4 ppm of NO in air for 22 hours after challenge with 10 mg/kg endotoxin intraperitoneally and were studied 1 hour after discontinuation of NO inhalation.
Experimental preparation. Mice were anesthetized by intraperitoneal injection of ketamine (0.1 mg/g body weight [bw]). Tracheostomy and arterial catheterization were performed as described previously (Steudel et al., 1997, Circ. Res. 81:34-41). A custom-made endotracheal tube (22G Angiocath; Becton Dickinson Healthcare Systems, Sandy, Utah, USA), combined with a 2 French Fogarty arterial embolization catheter (Baxter Healthcare Corp., Irvine, Calif., USA) was inserted into the trachea, with the balloon tip of the Fogarty catheter initially remaining in the trachea. Volume-controlled ventilation was initiated at a respiratory rate of 110-120 breaths per minute, at FiO2 1.0, a peak inspiratory pressure of 13 cm H2O, and a positive end-expiratory pressure level of 2-3 cm H2O. A right parasternal thoracotomy was performed, and a small-vessel ultrasonic flow probe (1RB; Transonic Instruments, Ithaca, N.Y.) was placed around the right pulmonary artery and fixed in position using a micromanipulator (X-tra Hand; TechniTool, Plymouth, Pa.). A 4-0 silk suture was positioned around the left main pulmonary artery to allow transient vascular occlusion. A pulmonary artery catheter (PE10) was inserted into the main pulmonary artery by direct puncture. In other experiments, a lower thoracic aortic flow probe was placed as reported previously (Steudel et al., supra).
Blood flow and pressure measurements. Mean systemic arterial pressure (PSA), mean pulmonary artery pressure (PPA), and in some studies PLA, were continuously monitored using biomedical amplifiers (Hewlett Packard 8805C, Palo Alto, Calif.; Siemens Sirecust 960, Danvers, Mass.). Mean lower thoracic aortic flow (QLTAF) and right pulmonary artery flow (QRPA) were measured with small vessel flow probes connected to a flowmeter (T106; Transonic Instruments). In some experiments, left ventricular end-diastolic pressure was measured with a 1.4 Fr. Millar catheter. The catheter was advanced through the right carotid artery into the left ventricle. […] All monitoring equipment was calibrated before each experiment.
Differential measurement of left and right pulmonary artery flow. To assess the contribution of QRPA and left pulmonary artery flow (QLPA) to total pulmonary artery flow (QPA), transient occlusion (90 seconds) of the left pulmonary artery (QLPA) was performed. QRPA during acute left pulmonary artery occlusion was considered to be QPA (i.e., cardiac output) and correlated closely (r2=0.88; y=0.95x+0.38; n=9) with QLTAF. QLPA was calculated as the difference between QRPA during left pulmonary artery occlusion (QPA) and QRPA with a patent left pulmonary artery (QLPA=QPA−QRPA). Absolute values of respective flows were recorded, and the fractional distribution of flow to the right and left lungs (QRPA/QPA and QLPA/QPA) was calculated. […]

[2] = saline-treated wild-type mice, L-NIL 5 mg/kg intravenously after LMBO

In the case of `CC(=N)NCCCC[C@H](N)C(=O)O` [L-NIL], the “increase in pulmonary cGMP levels” value (NOS2) is reported as “sufficient to prevent the increase in pulmonary cGMP levels”, the “reduction of QLPA/QPA after LMBO” value ([1]; endotoxin-challenged (10 mg/kg i.p.) wild-type mice treated with L-NIL 5 mg/kg intraperitoneally 3 hours later, studied 22 hours after endotoxin) is reported as 53±10% and the “all other hemodynamic parameters after L-NIL injection” value [1, 2] is reported as “did not change”. The “reduction of QLPA/QPA during LMBO after acute L-NIL” value [1, 2] was 56±3% and the “reduction of QLPA/QPA during LMBO after acute L-NIL” value ([1]; wild-type mice treated with endotoxin 22 hours earlier, L-NIL 5 mg/kg intravenously after LMBO) was 24±18%.

From patent US6935334B2, “Enhancing therapeutic effectiveness of nitric oxide inhalation” (The General Hospital Corporation, priority 2000, dated 2005)
